Measured values reported in patent publication US5120730A, “Benzothiazepine esters, their preparation and formulations for therapeutic use” (IdB Holding SpA, priority 1990, dated 1992).
Entries after “also recorded” stand apart in the source; their conditions may differ. Where two headings read alike, the source gives them in different places.

Columns and labels:
isolated rat portal vein = assay: Isolated rat portal vein: force of spontaneous contraction; set-up: species or system rat (Sprague-Dawley); conditions: for selectivity, isolated vessels vs atria (in words): comparison of rat portal vein with guinea pig atria; for inhibition of contraction force (in words) / IC50: isolated rat portal vein; for IC50: 50% reduction of contraction force, n = 6, read-out: Contraction force pIC50 (converted)
From the text: 2. 2-3 cm strips of portal vein were taken from Sprague-Dawley rats of 220-250 g weight.

[1] = rats
From the text: (§1) Sprague-Dawley rats of both sexes (5 male+5 female) were used for each experimental group.

in vivo = conditions: rat
From the text: as §1

[2] = tested on: isolated guinea pig atria; assay: Isolated guinea pig atria: force and frequency of spontaneous contractions; set-up: species or system guinea pig (Hartley-Dunkin); conditions: for inhibition at 10 µM / activation at 10 µM / IC25: Cavia porcellus; for inhibition at 10 µM: read-out: negative chronotropic effect; for activation at 10 µM: read-out: positive inotropic effect; for activity on force and frequency of the contractions (in words) / IC25: isolated guinea pig atria; for IC25: n = 6
Description: 1. The atria taken from Hartley-Dunkin guinea pigs of average weight 400-450 g were placed in an isolated organ bath of 15 ml containing a physiological Krebs solution (J. C. Doxey et al., Br. J. Pharmac. 78, 498, 1983) at a temperature of 30°±0.5° and oxygenated by means of a gaseous mixture composed of 95% of O2 and 5% of CO2. The force and frequency of the spontaneous contractions (T. De Gubareff and W. Sleaton Jr., J. Pharm. Exp. Ther., 148, 202, 1965) were recorded by means of an isometric force transducer. The concentration of product required to reduce the contraction force and frequency by 25% (IC25) and the relevant pIC25 were calculated.

[3] = Haemodynamics in anaesthetized rats; format: in vivo, rat (Sprague-Dawley); conditions: for change in BP (systemic arterial pressure) / change in HR (heart rate) / change in LVP (left intraventricular pressure) / change in dp/dt: n = 6
Description: Male Sprague-Dawley rats of average weight 350-400 g, anaesthetized with sodium pentobarbital in an intraperitoneal dose of 60 mg/kg, underwent cannulation for measuring the following parameters: systemic arterial pressure (BP), heart rate (HR) left intraventricular pressure (LVP) and dp/dt.
After recording of the baseline values, the substances were injected by the intravenous route within a time of 30 seconds. The changes in the parameters indicated above were measured at times of 0.5-2-10 and 20 minutes.

Question: Which “selectivity, isolated vessels vs atria (in words)” value (isolated rat portal vein) does the source give for `COc1ccc([C@@H]2Sc3ccccc3N(CCN(C)C)C(=O)[C@@H]2OC(=O)CCC(=O)O[C@H]2C(=O)N(CCN(C)C)c3ccccc3S[C@H]2c2ccc(OC)cc2)cc1` (relative stereo) [Ib, 3,3'-[(1,4-dioxo-1,4-butanediyl)-bis(oxy)] bis[(+)-cis-5-[2-(dimethylamino)ethyl]-2,3-dihydro-2-(4-methoxyphenyl)-1,5-benzothiazepin-4(5H)-one]] here?
Answer: The value was “selective activity on the isolated vessels”.

Question: What about the “inhibition of contraction force (in words)” value (isolated rat portal vein) of the same compound?
Answer: The value was “antagonize the contraction force in a dose-dependent manner; also recorded: significantly inhibit the contraction force”.

Question: And the IC50 (isolated rat portal vein)?
Answer: Its IC50 is 2340 nM.

Question: What about the “toxicity versus diltiazem, intraperitoneal (in words)” value [1] of the same compound?
Answer: Its value is “less toxic than the reference product”.

Question: And the “toxicity versus diltiazem, oral (in words)” value [1]?
Answer: Its value is “LD50 comparable with that of diltiazem”.

Question: And the LD50 at 336 h (in vivo; ip)?
Answer: The LD50 at 336 h was 600 mg/kg.

Question: What about the LD50 at 336 h (in vivo; po) of the same compound?
Answer: The LD50 at 336 h was 881 mg/kg.

Question: What about the inhibition at 10 µM [2] of the same compound?
Answer: The inhibition at 10 µM was 5%.

Question: What about the activation at 10 µM [2] of the same compound?
Answer: The activation at 10 µM was 12%.

Question: What about the “activity on force and frequency of the contractions (in words)” value [2] of the same compound?
Answer: Its value is “virtually inactive; also recorded: free of the negative chronotropic and inotropic effects”.

Question: What does the source list for `COc1ccc([C@@H]2Sc3ccccc3N(CCN(C)C)C(=O)[C@@H]2OC(=O)/C=C/C(=O)O[C@H]2C(=O)N(CCN(C)C)c3ccccc3S[C@H]2c2ccc(OC)cc2)cc1` [Ia, 3,3'-[(2E)-(1,4-dioxo-1,4-butenediyl)-bis(oxy)]bis[(+)-cis-5-[2-(dimethylamino)ethyl]-2,3-dihydro-2-(4-methoxyphenyl)-1,5-benzothiazepin-4-(5H)-one]]?
Answer: change in BP (systemic arterial pressure) ([3]; 0.35 μmol/kg i.v., 0.5 minutes): -32 mmHg; change in HR (heart rate) ([3]; 0.35 μmol/kg i.v., 0.5 minutes): -19 bpm; change in LVP (left intraventricular pressure) ([3]; 0.35 μmol/kg i.v., 0.5 minutes): -29 mmHg; change in dp/dt ([3]; 0.35 μmol/kg i.v., 0.5 minutes): -31 mmHg/sec; change in BP (systemic arterial pressure) ([3]; 0.35 μmol/kg i.v., 2 minutes): -16 mmHg; change in HR (heart rate) ([3]; 0.35 μmol/kg i.v., 2 minutes): -19 bpm; change in LVP (left intraventricular pressure) ([3]; 0.35 μmol/kg i.v., 2 minutes): -11 mmHg; change in dp/dt ([3]; 0.35 μmol/kg i.v., 2 minutes): -20 mmHg/sec; change in BP (systemic arterial pressure) ([3]; 0.35 μmol/kg i.v., 10 minutes): +2 mmHg; change in HR (heart rate) ([3]; 0.35 μmol/kg i.v., 10 minutes): -9 bpm; change in LVP (left intraventricular pressure) ([3]; 0.35 μmol/kg i.v., 10 minutes): -2 mmHg; change in dp/dt ([3]; 0.35 μmol/kg i.v., 10 minutes): -67 mmHg/sec; change in BP (systemic arterial pressure) ([3]; 0.35 μmol/kg i.v., 20 minutes): -8 mmHg; change in HR (heart rate) ([3]; 0.35 μmol/kg i.v., 20 minutes): -14 bpm; change in LVP (left intraventricular pressure) ([3]; 0.35 μmol/kg i.v., 20 minutes): -11 mmHg; change in dp/dt ([3]; 0.35 μmol/kg i.v., 20 minutes): -25 mmHg/sec; effect on heart rate and contractility (in words) ([3]; 0.7 μmol/kg i.v.): without altering the heart rate and contractility parameters; hypotensive activity (in words) ([3]; 0.7 μmol/kg i.v.): significant and lasting hypotensive activity; change in BP (systemic arterial pressure) ([3]; 0.70 μmol/kg i.v., 0.5 minutes): -32 mmHg; change in HR (heart rate) ([3]; 0.70 μmol/kg i.v., 0.5 minutes): -19 bpm; change in LVP (left intraventricular pressure) ([3]; 0.70 μmol/kg i.v., 0.5 minutes): -33 mmHg; change in dp/dt ([3]; 0.70 μmol/kg i.v., 0.5 minutes): -15 mmHg/sec; change in BP (systemic arterial pressure) ([3]; 0.70 μmol/kg i.v., 2 minutes): -33 mmHg; change in HR (heart rate) ([3]; 0.70 μmol/kg i.v., 2 minutes): -11 bpm; change in LVP (left intraventricular pressure) ([3]; 0.70 μmol/kg i.v., 2 minutes): -32 mmHg; change in dp/dt ([3]; 0.70 μmol/kg i.v., 2 minutes): -20 mmHg/sec; change in BP (systemic arterial pressure) ([3]; 0.70 μmol/kg i.v., 10 minutes): -22 mmHg; change in HR (heart rate) ([3]; 0.70 μmol/kg i.v., 10 minutes): -13 bpm; change in LVP (left intraventricular pressure) ([3]; 0.70 μmol/kg i.v., 10 minutes): -32 mmHg; change in dp/dt ([3]; 0.70 μmol/kg i.v., 10 minutes): -16 mmHg/sec; change in BP (systemic arterial pressure) ([3]; 0.70 μmol/kg i.v., 20 minutes): -25 mmHg; change in HR (heart rate) ([3]; 0.70 μmol/kg i.v., 20 minutes): -9 bpm; change in LVP (left intraventricular pressure) ([3]; 0.70 μmol/kg i.v., 20 minutes): -32 mmHg; change in dp/dt ([3]; 0.70 μmol/kg i.v., 20 minutes): -20 mmHg/sec; selectivity of action (in words) ([3]; conclusion from in vivo and in vitro results): selective action on the smooth vessel musculature; selectivity, isolated vessels vs atria (in words) (isolated rat portal vein): selective activity on the isolated vessels; inhibition of contraction force (in words) (isolated rat portal vein): antagonize the contraction force in a dose-dependent manner; also recorded: significantly inhibit the contraction force; IC50 (isolated rat portal vein): 3980 nM; toxicity versus diltiazem, intraperitoneal (in words) [1]: less toxic than the reference product; toxicity versus diltiazem, oral (in words) [1]: less toxic; LD50 at 336 h (in vivo; ip): 250 mg/kg; LD50 at 336 h (in vivo; po): > 1500 mg/kg; inhibition at 10 µM [2]: 5%; activation at 10 µM [2]: 6%; activity on force and frequency of the contractions (in words) [2]: virtually inactive; also recorded: free of the negative chronotropic and inotropic effects

Question: Which results are given for `COc1ccc([C@@H]2Sc3ccccc3N(CCN(C)C)C(=O)[C@@H]2OC(C)=O)cc1` [Diltiazem, (+)-Cis-5-[2-(dimethylamino)ethyl]-3-acetoxy-2,3-dihydro-2-(4-methoxyphenyl)-1,5-benzothiazepin-4(5H)-one, reference compound]?
Answer: change in BP (systemic arterial pressure) ([3]; 0.35 μmol/kg i.v., 0.5 minutes): -21 mmHg; change in HR (heart rate) ([3]; 0.35 μmol/kg i.v., 0.5 minutes): -4 bpm; change in LVP (left intraventricular pressure) ([3]; 0.35 μmol/kg i.v., 0.5 minutes): -18 mmHg; change in dp/dt ([3]; 0.35 μmol/kg i.v., 0.5 minutes): -150 mmHg/sec; change in BP (systemic arterial pressure) ([3]; 0.35 μmol/kg i.v., 2 minutes): -1 mmHg; change in HR (heart rate) ([3]; 0.35 μmol/kg i.v., 2 minutes): +6 bpm; change in LVP (left intraventricular pressure) ([3]; 0.35 μmol/kg i.v., 2 minutes): -1 mmHg; change in dp/dt ([3]; 0.35 μmol/kg i.v., 2 minutes): -25 mmHg/sec; change in BP (systemic arterial pressure) ([3]; 0.35 μmol/kg i.v., 10 minutes): +6 mmHg; change in HR (heart rate) ([3]; 0.35 μmol/kg i.v., 10 minutes): +10 bpm; change in LVP (left intraventricular pressure) ([3]; 0.35 μmol/kg i.v., 10 minutes): +2 mmHg; change in dp/dt ([3]; 0.35 μmol/kg i.v., 10 minutes): -17 mmHg/sec; change in BP (systemic arterial pressure) ([3]; 0.35 μmol/kg i.v., 20 minutes): +1 mmHg; change in HR (heart rate) ([3]; 0.35 μmol/kg i.v., 20 minutes): +3 bpm; change in LVP (left intraventricular pressure) ([3]; 0.35 μmol/kg i.v., 20 minutes): -5 mmHg; change in dp/dt ([3]; 0.35 μmol/kg i.v., 20 minutes): -183 mmHg/sec; effect on all observed parameters (in words) ([3]; 0.7 μmol/kg i.v.): significantly reduces all the observed parameters; effect on heart rate and contractility (in words) ([3]; 0.7 μmol/kg i.v.): significant cardiodepressive effect; change in BP (systemic arterial pressure) ([3]; 0.70 μmol/kg i.v., 0.5 minutes): -52 mmHg; change in HR (heart rate) ([3]; 0.70 μmol/kg i.v., 0.5 minutes): -83 bpm; change in LVP (left intraventricular pressure) ([3]; 0.70 μmol/kg i.v., 0.5 minutes): -46 mmHg; change in dp/dt ([3]; 0.70 μmol/kg i.v., 0.5 minutes): -658 mmHg/sec; change in BP (systemic arterial pressure) ([3]; 0.70 μmol/kg i.v., 2 minutes): -34 mmHg; change in HR (heart rate) ([3]; 0.70 μmol/kg i.v., 2 minutes): -99 bpm; change in LVP (left intraventricular pressure) ([3]; 0.70 μmol/kg i.v., 2 minutes): -24 mmHg; change in dp/dt ([3]; 0.70 μmol/kg i.v., 2 minutes): -375 mmHg/sec; change in BP (systemic arterial pressure) ([3]; 0.70 μmol/kg i.v., 10 minutes): -16 mmHg; change in HR (heart rate) ([3]; 0.70 μmol/kg i.v., 10 minutes): -5 bpm; change in LVP (left intraventricular pressure) ([3]; 0.70 μmol/kg i.v., 10 minutes): -4 mmHg; change in dp/dt ([3]; 0.70 μmol/kg i.v., 10 minutes): -108 mmHg/sec; change in BP (systemic arterial pressure) ([3]; 0.70 μmol/kg i.v., 20 minutes): +9 mmHg; change in HR (heart rate) ([3]; 0.70 μmol/kg i.v., 20 minutes): +7 bpm; change in LVP (left intraventricular pressure) ([3]; 0.70 μmol/kg i.v., 20 minutes): -7 mmHg; change in dp/dt ([3]; 0.70 μmol/kg i.v., 20 minutes): -92 mmHg/sec; IC50 (isolated rat portal vein): 813 nM; IC25 ([2]; 25% reduction of contraction force, read-out: Contraction force pIC25 (converted)): 0.513 µM; IC25 ([2]; 25% reduction of contraction frequency, read-out: Frequency pIC25 (converted)): 0.355 µM; activity on force and frequency of the contractions (in words) [2]: significant activity
